Measurements: patent US20250017889A1, “INHIBITORS OF P1B-TYPE ATPASES” (THE CURATORS OF THE UNIVERSITY OF MISSOURI, priority 2021, published 2025)

Tests used:
[1] = system: Cu^S cells complemented with ATP7A; assay: Copper toxicity in Cu^S cells complemented with ATP7A; type: cell-based; conditions: 10 μM, 50% cytotoxic copper concentration
Excerpt: (§1) 8A illustrates a copper sensitive fibroblast cell line (Cu^S) generated by deleting genes encoding ATP7A, metallothionein-I (MT-I) and metallothionein-II (MT-II). Cu^S cells cannot be propagated in regular medium (DMEM) unless a copper chelator (BCS) is supplied to the medium.
(§2) Cu^S cell lines were derived that were complemented by either ATP7A, ATP7B or MT-II.

human ATP7A (hATP7A) = target: T1, human ATP7A (hATP7A) (Homo sapiens, UniProt Q04656); assay: Tyrosinase activation in B16 ATP7A^KO cells transfected with human ATP7A; type: cell-based; conditions: 10 μM, 24 h, ATP7A^KO melanoma cells
T1 construct: expressed in transfected cells; host or cells: B16 melanoma ATP7A^KO cells (mouse), transient transfection
T1 sequence (Q04656 1-1500): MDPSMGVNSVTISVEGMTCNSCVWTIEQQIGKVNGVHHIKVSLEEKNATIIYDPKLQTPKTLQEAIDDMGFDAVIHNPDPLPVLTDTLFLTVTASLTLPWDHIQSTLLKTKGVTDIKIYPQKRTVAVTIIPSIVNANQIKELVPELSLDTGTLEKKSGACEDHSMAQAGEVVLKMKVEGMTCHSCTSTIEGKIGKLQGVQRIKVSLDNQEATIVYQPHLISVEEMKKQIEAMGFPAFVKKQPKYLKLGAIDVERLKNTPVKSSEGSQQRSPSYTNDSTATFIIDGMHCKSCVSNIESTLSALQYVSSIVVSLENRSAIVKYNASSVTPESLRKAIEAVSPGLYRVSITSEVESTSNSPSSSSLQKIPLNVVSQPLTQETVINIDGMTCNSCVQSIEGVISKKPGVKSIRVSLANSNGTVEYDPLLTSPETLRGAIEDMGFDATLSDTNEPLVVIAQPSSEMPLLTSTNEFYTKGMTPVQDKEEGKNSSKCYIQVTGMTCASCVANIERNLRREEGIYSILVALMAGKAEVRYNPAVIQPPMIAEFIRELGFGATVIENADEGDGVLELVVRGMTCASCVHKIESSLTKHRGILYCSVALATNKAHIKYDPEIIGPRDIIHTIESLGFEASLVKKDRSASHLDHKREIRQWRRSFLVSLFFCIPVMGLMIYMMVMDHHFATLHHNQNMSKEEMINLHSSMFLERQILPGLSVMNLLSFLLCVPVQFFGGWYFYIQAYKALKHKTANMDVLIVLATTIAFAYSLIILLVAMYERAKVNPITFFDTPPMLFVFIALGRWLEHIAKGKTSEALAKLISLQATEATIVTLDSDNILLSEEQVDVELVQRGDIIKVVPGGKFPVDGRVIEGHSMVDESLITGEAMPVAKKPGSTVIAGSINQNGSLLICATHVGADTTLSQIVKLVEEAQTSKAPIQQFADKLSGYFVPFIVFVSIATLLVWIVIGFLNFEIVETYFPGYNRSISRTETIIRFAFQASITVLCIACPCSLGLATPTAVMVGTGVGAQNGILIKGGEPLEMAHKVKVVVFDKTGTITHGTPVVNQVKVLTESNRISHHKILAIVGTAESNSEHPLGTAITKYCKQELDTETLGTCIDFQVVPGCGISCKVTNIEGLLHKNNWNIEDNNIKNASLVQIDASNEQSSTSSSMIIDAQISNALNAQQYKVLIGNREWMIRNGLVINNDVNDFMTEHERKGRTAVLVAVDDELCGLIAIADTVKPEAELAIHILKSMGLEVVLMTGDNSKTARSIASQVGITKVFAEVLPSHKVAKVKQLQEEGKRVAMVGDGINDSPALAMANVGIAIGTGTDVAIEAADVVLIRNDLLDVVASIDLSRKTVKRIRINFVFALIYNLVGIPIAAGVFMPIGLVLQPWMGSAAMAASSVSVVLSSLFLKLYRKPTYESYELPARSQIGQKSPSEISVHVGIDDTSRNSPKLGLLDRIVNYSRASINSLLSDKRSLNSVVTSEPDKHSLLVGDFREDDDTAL
Excerpt: Prior studies have shown that exogenously expressed ATP7B can activate tyrosinase in cells lacking ATP7A. For these studies, a B16 melanoma cell model was used in which tyrosinase activity can be detected by in situ oxidation of L-DOPA to DOPAchrome (10A). As shown earlier, B16 cells deleted for the ATP7A gene (ATP7A^KO) completely lack tyrosinase activity (10B). […] Quantification of tyrosinase activity in these cells is shown (10G). Data represent mean±SEM; ****p<0.0001 of three independent replicates.

[2] = Cytotoxicity in B16 cells by MTT and crystal violet assays; type: cell-based; conditions: mouse
Excerpt: This is consistent with lower affinity of MKV1 for ATP7A (FIG. 6E).

4T1, B16 and LLC cells = assay: Sensitivity of cells to elevated copper concentrations; type: cell-based; conditions: 10 μM, 48 h
Excerpt: It is well-known that copper export via ATP7A is the major mechanism by which cells are protected against rising copper levels, which is facilitated by Cu-stimulated trafficking of ATP7A from the trans-Golgi to the plasma membrane. Therefore, a predicted consequence of an ATP7A inhibitor would be an increase of the sensitivity of cells to high copper concentrations.

[3] = system: tyrosinase activity in B16 melanoma cells; assay: Tyrosinase activity in wild type B16 melanoma cells (L-DOPA to DOPAchrome), proxy for ATP7A inhibition; type: cell-based
Excerpt: Tyrosinase is a cuproenzyme involved in melanogenesis that receives copper via ATP7A in the secretory pathway. […] Thus, reductions in tyrosinase activity in wild type B16 cells can be used as a proxy for inhibition of ATP7A. […]

[4] = system: Cu^S cells complemented with ATP7B; assay: Copper toxicity in Cu^S cells complemented with ATP7B; type: cell-based; conditions: 10 μM, 50% cytotoxic copper concentration
Excerpt: as §1, §2

B16 melanoma lung tumors = assay: Melanin production in B16 melanoma tumors on the lungs of mice; type: in vivo, C57BL/6 mice; conditions: 50 mg/kg subcutaneously every other day for 7 days
Method: Previous studies have shown that ATP7A is essential for copper delivery into the secretory pathway to tyrosinase, a copper-dependent enzyme required for melanogenesis. […] To confirm that ATP7A is required for tyrosinase activity, B16 melanoma cells were generated in which the ATP7A gene was deleted by CRISPR-CAS9 to generate ATP7A^KO cells. As expected, tyrosinase activity was absent in the B16 ATP7A^KO cells. […] Wild type B16 melanoma cells were injected by tail vein into C57BL/6 mice to establish metastatic tumors on the lungs. […] Left panel images show the lungs of three different mice immediately after dissection. In control mice, darkly pigmented melanoma nodules were readily apparent on the lungs (white arrows).

## N#CC(C(=O)Nc1cccc(C(F)(F)F)c1)C(=S)Nc1ccccc1Cl (centres unmarked) [MKV3]
[1]
  copper toxicity: enhanced copper toxicity
Human ATP7A (hATP7A)
  activation of tyrosinase activity by ATP7A: prevented activation of tyrosinase activity
[2]
  CC50: ~75 µM
4T1, B16 and LLC cells
  copper toxicity: strongly augmented copper toxicity
[3]; 5 μM, 24 h, wild type B16 melanoma cells
  in situ tyrosinase activity: loss of tyrosinase activity
[3]; Mus musculus, B16 cells
  IC50: 2.96 ± 0.007 µM
[4]
  copper toxicity: enhanced copper toxicity
B16 melanoma lung tumors
  pigment of melanoma nodules on the lungs: very little pigment
